# Results reported in patent publication US20210330756A1, “Acetylation of Miro1” (University of South Carolina, priority 2020, published 2021).
# Tested on: growth cones of DRG neurons
# Test: Immunolabeling of growth cone cytoskeleton (Ac-α-tubulin, tyrosinated α-tubulin, F-actin)
# Assay type: cell-based, rat
# Method: We tested for this specificity in the adult DRG neurons from above by immunoblotting. […] (A) Number of mitochondria in growth cones after exposing DRG cultures to 10 μM TubA versus vehicle (control) for 1 h is shown as average fold-change in number of mitochondria per growth cone±SEM (n=13 axons across three culture preparations; *, P≤0.05 by one-way ANOVA with Bonferroni post hoc analysis). (B) Representative EMs of Remak bundles (arrowheads) in naive Sciatic nerve and nerves after 2 h vehicle (DMSO) or TubA injection are shown. Arrows indicate mitochondria in the unmyelinated axons. Note that a Schwann cell nucleus (asterisk) is seen in the Remak bundle for DMSO image but not the other two micrographs (scale bar=3 μm). (C) Quantification of number of mitochondria per unmyelinated axon from EM images as in B is shown as average±SEM (n≥5; *****, P≤0.0001 by one-way ANOVA with Bonferroni post hoc analysis). (D-F) Quantification for indicated parameters for mitochondrial transport in sciatic nerve in vivo using tetramethylrhodamine, ethyl ester, perchlorate to visualize mitochondria is shown.
# We used a sequential immunostaining approach for simultaneous detection of tyrosinated α-tubulin (by indirect immunofluorescence), Ac-α-tubulin, and β-tubulin (by direct immunofluorescence). Phalloidin staining was also used to detect F-actin. Monoclonal mouse anti-Ac-α-tubulin IgG (6-11-B1; Sigma-Aldrich; T6793) was conjugated to Alexa Fluor 405 using the Zenon Labeling Kit per the manufacturer's instructions (Life Technologies; Z-25013). After fixation and permeabilization, coverslips were incubated with anti-Tyr-α-tubulin IgG (1:100; Sigma-Aldrich; T9028) in 1% blocking buffer overnight at 4° C. in a humidified chamber. […] Coverslips were washed twice with PBS then stained with Actin-Red 555 Ready Probe for 30 min (1:25 dilution of 200 /Uml stock; Thermo Fisher Scientific; R37112). […] Epifluorescence and confocal imaging was used for imaging of fixed samples to obtain protein localization and quantitation data. […]
smiles,measurement,setting,value
"CN1CCc2c(c3ccccc3n2Cc2ccc(C(=O)NO)cc2)C1 [TubA, tubastatin]",anti-Ac-α-tubulin immunoreactivity in growth cones,10 μM vs control cultures,significant increase in anti-Ac-α-tubulin immunoreactivity in growth cones
same,tyrosinated α-tubulin in growth cones,10 μM vs control cultures,no change in tyrosinated α-tubulin
same,growth cone signals for F-actin,TubA-treated cultures,consistently decreased
